Data taken from patent publication US3980703A, “Extraction of carboxylic acids from dilute aqueous solutions” (The Dow Chemical Company, priority 1975, dated 1976).
Blank lines part the entries; values can stand above or below the compound they belong to.

Key:
Type in all cases: physicochemical
[1] = Extraction of acetic acid from 18% aqueous NaCl with polar extractants, distribution coefficient by radiometric counting (Example 1); details: 1920 ppm acetic acid in 18% aqueous NaCl, equal volumes, 30 min
Excerpt: (§1) A trace quantity of radioactive carbon-14 labeled acetic acid was included. Portions of this solution were shaken for thirty minutes with equal volumes of extractant solutions having the compositions set out in the following table. The phases were allowed to disengage, separated and their relative acetic acid concentrations determined by radiometric counting in a scintillation counter. The distribution coefficient (ratio of acetic acid concentrations in organic and aqueous phase) for each extraction is also given in the table.

[2] = Extraction of acetic acid with TOPO solutions, distribution coefficient (Example 2); details: about 0.025 molar acid
Excerpt: as §1, with “A solution of 1920 ppm (approximately 0.2 percent) of acetic acid in 18% aqueous NaCl was made up. A” for “A”
(§2) In the manner of Example 1, about 0.025 molar aqueous solutions of acetic, glycolic and lactic acids were extracted with equal volumes of TOPO (trioctyl phosphine oxide) solutions in kerosene or Chevron 3.

[3] = Extraction of lactic acid with TOPO solutions, distribution coefficient (Example 2); details: about 0.025 molar acid
Excerpt: as §1, with “A solution of 1920 ppm (approximately 0.2 percent) of acetic acid in 18% aqueous NaCl was made up. A” for “A”
as §2

[4] = Extraction of glycolic acid with TOPO solutions, distribution coefficient (Example 2); details: for Distribution Coefficient For: Glycolic: about 0.025 molar acid
Excerpt: as §1, with “A solution of 1920 ppm (approximately 0.2 percent) of acetic acid in 18% aqueous NaCl was made up. A” for “A”
as §2

[5] = Extraction of acetic acid with tetra (n-butyl) urea, distribution coefficient (Example 3); details: 0.5 M extractant in Chevron 25; 0.2% acetic acid in 18% sodium chloride
Excerpt: (§3) A 1.9% solution of acrylic acid in water was equilibrated with an equal volume of a 28% solution of tetra-(n-butyl) urea in cyclohexane. […] A similar experiment with 0.2% acetic acid in 18% sodium chloride as the aqueous phase, and 0.5 M tetrabutyl urea in Chevron 25 as the extractant, gave a distribution coefficient of 0.40.

[6] = Extraction of acrylic acid with tetra (n-butyl) urea, distribution coefficient by titration (Example 3); details: 28% extractant in cyclohexane; 1.9% acrylic acid in water; equal volumes
Excerpt: as §3

[7] = 0.2 M TOPO in kerosene, aqueous phase 1 Molar NaCl
[8] = 0.5 M TOPO in Chevron 3, aqueous phase 1 Molar NaCl
[9] = 0.5 M TOPO in Chevron 3, aqueous phase water

Distribution coefficient (ratio of acetic acid concentrations in organic and aqueous phase) ([1]; 0.1 M extractant in Chevron 25): 0.18
Distribution coefficient (ratio of acetic acid concentrations in organic and aqueous phase) ([1]; 0.5 M extractant in Chevron 25): 1.00
SMILES: CCCC[S+]([O-])CCCC [Di(n-butyl) sulfoxide]

Distribution Coefficient For: Acetic [2, 7]: 1.46
Distribution Coefficient For: Acetic [2, 8]: 3.2
Distribution Coefficient For: Acetic [2, 9]: 2.8
Distribution Coefficient For: Lactic [3, 7]: 0.40
Distribution Coefficient For: Lactic [3, 8]: 1.4
Distribution Coefficient For: Lactic [3, 9]: 1.02
Distribution Coefficient For: Glycolic [4, 7]: 0.13
Distribution Coefficient For: Glycolic [4, 8]: 0.39
Distribution Coefficient For: Glycolic [4, 9]: 0.35
Distribution coefficient (ratio of acetic acid concentrations in organic and aqueous phase) ([1]; 0.5 M extractant in Chevron 25): 6.1
SMILES: CCCCCCCCP(=O)(CCCCCCCC)CCCCCCCC [Trioctyl phosphine oxide, trioctyl phosphine oxide]

SMILES: O=C(O)CO [glycolic acid]
extraction effectiveness of glycolic acid relative to acetic and lactic acids ([4]; TOPO solutions in kerosene or Chevron 3): much less effectively extracted than acetic and lactic acids

distribution coefficient (acetic acid) [5]: 0.40
distribution coefficient for the acrylic acid (organic/aqueous) [6]: 1.05
SMILES: CCCCN(CCCC)C(=O)N(CCCC)CCCC [tetra-(n-butyl) urea]
